# Legend:
# male Sprague-Dawley rats = experiment: Serum lipids, apolipoproteins and weight gain in chow-fed male Sprague-Dawley rats after seven days of oral treatment; format: in vivo, rat; details: 100 mg/kg, 7 days, vs vehicle
# Procedure: Illustrative compounds of the invention were administered daily at a dose of 100 mg/kg to chow fed male Sprague-Dawley rats for seven days in the morning by oral gavage in 1.5% carboxymethylcellulose/0.2% Tween-20 (dosing vehicle). Animals were weighed daily. Animals were allowed free access to rodent chow and water throughout the study. After the seventh dose, animals were sacrificed in the evening and blood serum was assayed for lipoprotein cholesterol profiles, serum triglycerides, total cholesterol VLDL, LDL, and HDL cholesterol, and the ratio of HDL cholesterol to that of VLDL plus LDL cholesterol, apolipoproteins A-I, C-II, C-III, and E by immunoelectrophoresis, and percent weight gain.
# The five compounds were tested in two separate experiments. In each experiment, the experimental data were normalized against a control group of rats which received the dosing vehicle alone.
# obese female Zucker rats [1] = experiment: Experiments B, C, D & E: serum lipids, glucose, insulin, body and liver weight in obese female Zucker rats treated for 14 days; format: in vivo, rat; details: Experiment C
# Procedure: In a number of different experiments, illustrative compounds of the invention and troglitazone were administered daily at various doses to 10-week old chow fed obese female Zucker rats for 14 days in the morning by oral gavage in 1.5% carboxymethylcellulose/0.2% Tween-20 (dosing vehicle). Animals were weighed daily. Animals were allowed free access to rodent chow and water throughout the study. Blood glucose was determined after a 6-hour fast in the afternoon without anesthesia from a tail vein. Serum was also prepared from a blood sample subsequently obtained from the orbital venous plexus (with O2/CO2 anesthesia) prior to and after one week treatment and used lipid and insulin determinations. At two weeks, blood glucose was again determined after a 6-hour fast without anesthesia from a tail vein. Soon thereafter, animals were sacrificed by CO2 inhalation in the evening and cardiac blood serum was collected and assessed for various lipids and insulin. Body weight was determined daily prior to dosing and at the time of euthanasia.
# obese female Zucker rats [2] = experiment: Experiment A: serum lipids, glucose, non-esterified fatty acids and weight gain in obese female Zucker rats after seven days of oral treatment; format: in vivo, rat; details: vehicle 6.6%
# Procedure: Dosing vehicle, Compound A (86 mg/kg of body weight) or troglitazone (120 mg/kg of body weight) was administered to eight week old female obese Zucker rats daily for seven days in the morning by oral gavage in 1.5% carboxymethylcellulose/0.2% Tween-20. Troglitazone was obtained commercially. Finely crushed tablets were suspended in vehicle for dosing. Orbital blood samples were obtained following a six-hour fast prior to the initial dose and also following the seventh dose.
# Blood serum was assayed for total cholesterol and triglycerides (FIG. 5), lipoprotein cholesterol profiles (FIG. 6), VLDL plus LDL cholesterol combined (also referred to as apo B containing lipoprotein cholesterol or non-HDL cholesterol), HDL cholesterol, and the ratio of HDL cholesterol to that of VLDL plus LDL cholesterol (FIG. 7), serum glucose, and non-esterified fatty acids (FIG. 8), and percent weight gain (FIG. 9). […] In particular, Compound A caused a marked elevation in HDL cholesterol after one week of treatment. Using the serum total cholesterol values (FIG. 5A) and the lipoprotein cholesterol distribution (FIG. 6), the amount of cholesterol associated with non-HDL (i.e., VLDL plus LDL) and HDL were determined (FIG. 7). […] In contrast, troglitazone reduced non-HDL and HDL cholesterol by 67% and 4%, respectively.
# [3] = tested on: LDL receptor deficient mice; experiment: Lipoprotein cholesterol profile in LDL receptor-deficient mice; format: in vivo; details: 300 mg/kg/day; one week; chow-fed female mice
# Excerpt: The effect of Compound A on LDL levels in a murine model of homozygous familial hypercholesterolemia (Ishibashi et al., 1993, J. Clin. Invest. 92:883–893; Ishibashi et al., 1994, J. Clin. Invest. 93:1885–1893) was studied. LDL receptor-deficient mice have elevated LDL cholesterol relative to wild type mice when fed a chow diet. When fed cholesterol-enriched diets, these mice develop atherosclerosis.
# primary rat hepatocytes = experiment: Synthesis of non-saponified and saponified lipids (14C-acetate incorporation) in hepatocytes; format: cell-based; details: 100 μM; 2 hr 14C-acetate labeling; vs no compound control
# Procedure: A male Sprague-Dawley rat was anesthetized by administration of sodium pentobarbitol by intraparitoneal injection at 50 mg/kg. In situ perfusion of the liver was performed as follows. […] To digest the liver, DSC solution (6.7 mM KCl, 143 mM NaCl, 9.2 mM Na HEPES, 5 mM CaCl2—2H2O, 1.7 mM Fructose, 0.029 mM Phenol red, 0.2% BSA, 100 U/ml collagenase Type I, 93 U/ml Hyaluronidase, 160 BAEE/ml trypsin inhibitor, pH 7.5) was perfused through the liver at a flow rate of 30 ml/min for 6 minutes at a temperature of 37° C. After digestion, cells were dispersed in a solution of DMEM− (DMEM containing 2 mM GlutMax-1, 0.2% BSA, 5% FBS, 12 nM insulin, 1.2 μM hydrocortisone) to stop the digestion process. The crude cell suspension was filtered through three layers of stainless steel mesh with pore sizes of 250, 106, and 75 μm respectively. Filtered cells were centrifuged at 50×g for two minutes and the supernatant discarded. The resulting cell pellet was resuspended in DMEM and centrifuged again. This final cell pellet was resuspended in DMEM+HS solution (DMEM containing 2 mM GlutMax-1, 20 nM delta-aminolevulinic acid, 17.4 mM MEM non-essential amino acids, 20% FBS, 12 nM insulin, 1.2 μM hydrocortisone) and plated to form monolayer cultures at a density of 100×10^3 cells/cm^2 on collagen coated culture dishes. […]
smiles,measurement,setting,value
"CC(C)(CO)CCCCOCCCCC(C)(C)CO [Compound A, 6-(6-hydroxy-5,5-dimethylhexyloxy)-2,2-dimethyl-hexan-1-ol]",change in VLDL cholesterol,male Sprague-Dawley rats,no change
same,glucose to insulin ratio,obese female Zucker rats [1]; 100 mg/kg,reduced
same,blood glucose,"obese female Zucker rats [1]; 100 mg/kg, fasted",tendency to lower blood glucose
same,decline of glucose to insulin ratio,"obese female Zucker rats [1]; 1 and 3 mg/kg, over two weeks (same as control)",⅓ to ½
same,weight gain,"obese female Zucker rats [1]; 10, 30 and 100 mg/kg, after one and two weeks",markedly reduced
same,glucose to insulin ratio,obese female Zucker rats [1]; 10 and 30 mg/kg,sustained at pretreatment levels
same,sharp rise in serum insulin,obese female Zucker rats [1]; higher doses (above 3 mg/kg),largely curtailed or minimized
same,increase in body weight,obese female Zucker rats [2]; 86 mg/kg,5.4%
same,HDL,[3],HDL elevation
same,LDL cholesterol,[3],rapid and significant reduction
"CC(C)(CCCOCCCC(C)(C)OP(=O)(OCc1ccccc1)OCc1ccccc1)OP(=O)(OCc1ccccc1)OCc1ccccc1 [Compound E, phosphoric acid dibenzyl ester 4-(4-(bis-benzyloxy-phosphoryloxy)-4-methyl-pentyloxy)-1,1-dimethyl-butyl ester]",rates of saponified fatty acid synthesis,primary rat hepatocytes,reduced
"CC(C)(O)CCCCOCCCCC(C)(C)O [Compound F, 6-(5-hydroxy-5-methyl-hexyloxy)-2-methyl-hexan-2-ol]",rates of saponified fatty acid synthesis,primary rat hepatocytes,reduced
"Cc1c(C)c2c(c(C)c1O)CCC(C)(COc1ccc(CC3SC(=O)NC3=O)cc1)O2 (stereo not drawn) [troglitazone, reference compound]",weight gain,"obese female Zucker rats [1]; after two weeks at 12, 40 and 120 mg/kg, after one week at 120 mg/kg",increased weight gain
same,percent liver to body weight,"obese female Zucker rats [1]; after two weeks, doses 12, 40, 120 mg/kg (FIG. 16)",reduced at all doses
same,weight gain,obese female Zucker rats [2]; 120 mg/kg,+11.6%

# From patent US7192940B2, “Ether compounds” (Esperion Therapeutics, Inc., priority 1999, dated 2007)
